Patent US8877707B2, “Inhibitors of HCV NS5A” (Presidio Pharmaceuticals, Inc., priority 2010, dated 2014)
Where two headings read alike, the source gives them in different places.

Test system: HCV genotype 1b replicon in Huh 7 cells
Assay: HCV replicon assay (1b_Huh-Luc/Neo-ET cell line, luciferase readout)
Format: cell-based
Settings: Hepatitis C virus, read-out: Inhibition of HCV genotype 1b
Summary of the method: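 Replicon level was read as luciferase signal after 72 h compound exposure, triplicate wells, starting the day after cells were plated. Cell line: 1b_Huh-Luc/Neo-ET. Values normalised to control as percent, and EC50 fitted with a variable-slope sigmoid; determinations repeated.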

[1] = Table 1, genotype 1b replicon, Huh 7 cells, 72 h, luciferase
[2] = Table 2, genotype 1b replicon, Huh 7 cells, 72 h, luciferase

Row | Structure (SMILES) | EC50 [1] [nM] | further results
1 | [2H]C([2H])([2H])C([2H])(C([2H])([2H])[2H])[C@@]([2H])(NC(=O)OC)C(=O)N1CCC[C@H]1c1ncc(-c2ccc3nc(-c4ccc(-c5cnc([C@@H]6CCCN6C(=O)[C@@H](NC(=O)OC)C(C)C)[nH]5)cc4F)ccc3c2)[nH]1 [compound 157] | < 1 | –
2 | COC(=O)N[C@H](C(=O)N1CCC[C@H]1c1ncc(-c2ccc3cc(-c4ccc5nc([C@@H]6CCCN6C(=O)[C@@H](NC(=O)OC)C(C)C)[nH]c5c4)ccc3c2)[nH]1)C(C)C [compound 174] | < 1 | –
3 | COC(=O)N[C@H](C(=O)N1CCC[C@H]1c1nc(-c2cnc3cc(-c4ccc(-c5cnc([C@@H]6CCCN6C(=O)[C@H](NC(=O)OC)c6ccccc6)[nH]5)cc4)ccc3c2)c[nH]1)C(C)C [compound 32] | < 1 | –
4 | COC(=O)N[C@H](C(=O)N1CCC[C@H]1c1ncc(-c2ccc3cc(-c4cc5[nH]c([C@@H]6CCCN6C(=O)[C@@H](NC(=O)OC)C6CCCC6)nc5cn4)ccc3c2)[nH]1)C1CCCC1 [compound 411] | – | EC50 [2]: < 1 nM
5 | COC(=O)N[C@H](C(=O)N1CCOC[C@H]1c1nc2ccc(-c3ccc4cc(-c5cnc([C@@H]6CCCN6C(=O)[C@@H](NC(=O)OC)C6CCOCC6)[nH]5)ccc4c3)cc2[nH]1)C(C)C [compound 223] | < 1 | –
6 | COC(=O)N[C@H](C(=O)N1CCC[C@H]1c1nc2ccc(-c3ccc4cc(-c5ccc6nc([C@@H]7CCCN7C(=O)[C@@H](NC(=O)OC)[C@@H](C)OC)[nH]c6c5)nnc4c3)cc2[nH]1)[C@@H](C)OC [compound 538] | – | EC50 (Huh-7, HCV 1b replicon): < 1 nM
7 | COC(=O)N[C@H](C(=O)N1CCC[C@H]1c1nc(-c2ccc3cc(-c4ccc(-c5cnc([C@@H]6CCCN6C(=O)[C@H](NC(=O)OC)c6ccc(F)cc6)[nH]5)cc4)ccc3c2)c[nH]1)C1CCOCC1 [compound 111] | < 1 | –
8 | COC(=O)N[C@H](C(=O)N1CCC[C@H]1c1ncc(-c2ccc(-c3nc4cc(-c5cnc([C@@H]6CCCN6C(=O)[C@@H](NC(=O)OC)C6CC6)[nH]5)ccc4o3)cc2)[nH]1)C1CC1 [compound 239] | < 1 | –
9 | COC(=O)N[C@H](C(=O)N1CCC[C@H]1c1ncc(-c2ccc3nc(-c4ccc(-c5cnc([C@@H]6CCCN6C(=O)[C@H](NC(=O)OC)c6ccccc6)[nH]5)cc4F)ccc3c2)[nH]1)C1CCOCC1 [compound 134] | < 1 | –
10 | CC[C@H](C)[C@H](NC(=O)OC)C(=O)N1CCC[C@H]1c1nc2ccc(-c3ccc4cc(-c5cnc([C@@H]6CCCN6C(=O)[C@H](COC)NC(=O)OC)[nH]5)ccc4c3)cc2[nH]1 [compound 514] | – | EC50 (Huh-7, HCV 1b replicon): < 1 nM
11 | COC(=O)N[C@H](C(=O)N1CCC[C@H]1c1ncc(-c2ccc3cc(-c4ccc5nc([C@@H]6CCCN6C(=O)[C@@H](NC(=O)OC)C6CCOCC6)[nH]c5c4)ccc3c2)[nH]1)C1CCOCC1 [compound 203] | < 1 | –
12 | COC(=O)N[C@@H](C(=O)N1CCC[C@H]1c1nc(-c2ccc3nc(C4CCC(c5cnc([C@@H]6CCCN6C(=O)[C@H](NC(=O)OC)c6ccccc6)[nH]5)CC4)ccc3c2)c[nH]1)c1ccccc1 (some centres unmarked) [compound 286] | < 1 | –
13 | COC(=O)N[C@H](C(=O)N1CCC[C@H]1c1ncc(-c2ccc(-c3ccc4cc(-c5c[nH]c([C@@H]6CCCN6C(=O)[C@H](NC(=O)OC)c6ccccc6)n5)ccc4c3)c(C)c2)[nH]1)C(C)C [compound 87] | < 1 | –
14 | COC(=O)N[C@H](C(=O)N1CCC[C@H]1c1ncc(-c2ccc(-c3nc4cc(-c5cnc([C@@H]6CCCN6C(=O)[C@@H](NC(=O)OC)C(C)C)[nH]5)ccc4n3C)cc2)[nH]1)C(C)C [compound 232] | < 1 | –
15 | COC(=O)N[C@H](C(=O)N1CCC[C@H]1C(=O)N[C@H](C)c1ccc(-c2ccc3cc(-c4cnc([C@@H]5CCCN5C(=O)[C@@H](NC(=O)OC)C5CCOCC5)[nH]4)ccc3c2)cc1)C1CCOCC1 [compound 563] | – | EC50 (Huh-7, HCV 1b replicon): 1 to 9.9 nM
16 | COC(=O)N[C@H](C(=O)N1CCC[C@H]1c1ncc(-c2ccc3cc(-c4ccc5nc([C@@H]6CCCN6C(=O)[C@@H](NC(=O)OC)C6CCCC6)[nH]c5c4)ccc3c2)[nH]1)C1CCCC1 [compound 218] | < 1 | –
17 | COC(=O)N[C@H](C(=O)N1CCC[C@H]1c1ncc(-c2ccc3cc(-c4cc5[nH]c([C@@H]6CCCN6C(=O)[C@@H](NC(=O)OC)C6CC6)nc5cn4)ccc3c2)[nH]1)C1CC1 [compound 414] | – | EC50 [2]: < 1 nM
18 | COC[C@H](NC(=O)OC)C(=O)N1CCC[C@H]1c1ncc(-c2ccc3cc(-c4ccc(-c5cnc([C@@H]6CCCN6C(=O)[C@H](NC(=O)OC)c6ccsc6)[nH]5)cc4)ccc3c2)[nH]1 [compound 465] | – | EC50 (Huh-7, HCV 1b replicon): < 1 nM
19 | CNC(=O)N[C@@H](C(=O)N1CCC[C@H]1c1ncc(-c2ccc(-c3ccc4cc(-c5c[nH]c([C@@H]6CCCN6C(=O)[C@@H](NC(=O)OC)C(C)C)n5)ccc4c3)cc2)[nH]1)c1ccccc1 [compound 18] | < 1 | –
20 | COC(=O)N[C@H](C(=O)N1CCC[C@H]1c1ncc(-c2ccc(-c3nc4ccc(-c5cnc([C@@H]6CCCN6C(=O)[C@@H](NC(=O)OC)C(C)C)[nH]5)cc4n3C)cc2)[nH]1)C(C)C [compound 231] | < 1 | –
21 | COC(=O)N[C@H](C(=O)N1CCC[C@H]1c1ncc(-c2ccc3cc(-c4ccc5nc([C@@H]6CCCN6C(=O)[C@@H](NC(=O)OC)C6CC6)[nH]c5c4)ncc3c2)[nH]1)C1CC1 [compound 376] | – | EC50 [2]: < 1 nM

Row | Structure (SMILES) | EC50 [1] [nM] | further results
22 | COC(=O)N[C@H](C(=O)N1CCC[C@H]1c1nc2ccc(-c3ccc4nc(-c5cnc([C@@H]6CCCN6C(=O)[C@H](NC(=O)OC)c6ccccc6)[nH]5)ccc4c3)cc2[nH]1)C(C)C [compound 210] | < 1 | –
23 | COC(=O)N[C@H](C(=O)N1CCC[C@H]1c1ncc(-c2ccc3cc(-c4ccc5nc([C@@H]6COCCN6C(=O)[C@@H](NC(=O)OC)C6CCCC6)[nH]c5c4)ccc3c2)[nH]1)C1CCCC1 [compound 350] | – | EC50 [2]: < 1 nM
24 | COC[C@H](NC(=O)OC)C(=O)N1CCC[C@H]1c1ncc(-c2ccc3cc(-c4ccc(-c5cnc([C@@H]6CCCN6C(=O)[C@H](NC(=O)OC)c6ccccc6)[nH]5)cc4)ccc3c2)[nH]1 [compound 316] | – | EC50 [2]: < 1 nM
25 | COC(=O)N[C@H](C(=O)N1CCC[C@H]1c1ncc(-c2ccc(-c3ccc4cc(-c5c[nH]c([C@@H]6CCCN6C(=O)[C@H](NC(=O)OC)c6ccccc6)n5)ccc4c3)c(F)c2)[nH]1)C1CCOCC1 [compound 106] | < 1 | –
26 | COC(=O)N[C@H](C(=O)N1CCC[C@H]1c1ncc(-c2ccc3cc(-c4ccc5nc([C@@H]6CCCN6C(=O)[C@@H](NC(=O)OC)C6CCOCC6)[nH]c5c4)ccc3c2)[nH]1)C(C)C [compound 189] | < 1 | –
27 | COC(=O)N[C@H](C(=O)N1CCC[C@H]1c1ncc(-c2ccc3cc(-c4ccc5nc([C@@H]6CCCN6C(=O)[C@@H](NC(=O)OC)C6CCCC6)[nH]c5c4)nnc3c2)[nH]1)C1CCCC1 [compound 393] | – | EC50 [2]: < 1 nM
28 | COC(=O)N[C@H](C(=O)N1CCC[C@H]1CNC(=O)c1ccc(-c2ccc3cc(-c4cnc([C@@H]5CCCN5C(=O)[C@@H](NC(=O)OC)C(C)C)[nH]4)ccc3n2)cc1)C(C)C [compound 544] | – | EC50 (Huh-7, HCV 1b replicon): < 1 nM
29 | COC(=O)N[C@H](C(=O)N1CCC[C@H]1c1nc2ccc(-c3ccc4cc(-c5cnc([C@@H]6CCCN6C(=O)[C@@H](c6ccccc6)N(C)C)[nH]5)ccc4c3)cc2[nH]1)C(C)C [compound 182] | < 1 | –
30 | COC(=O)N[C@H](C(=O)N1CCC[C@H]1C(=O)Nc1ccc(-c2ccc3cc(-c4cnc([C@@H]5CCCN5C(=O)[C@@H](NC(=O)OC)C(C)C)[nH]4)ccc3c2)cc1)C(C)C [compound 571] | – | EC50 (Huh-7, HCV 1b replicon): < 1 nM
31 | COC(=O)N[C@H](C(=O)N1CCC[C@H]1c1ncc(-c2ccc(-c3nc4cc(-c5cnc([C@@H]6CCCN6C(=O)[C@@H](NC(=O)OC)[C@@H](C)OC)[nH]5)ccc4o3)cc2)[nH]1)[C@@H](C)OC [compound 238] | < 1 | –
32 | CC[C@@H](C)[C@H](NC(=O)OC)C(=O)N1CCC[C@H]1c1ncc(-c2ccc3cc(-c4ccc5nc([C@@H]6CCCN6C(=O)[C@@H](NC(=O)OC)[C@H](C)CC)[nH]c5c4)nnc3c2)[nH]1 [compound 396] | – | EC50 [2]: < 1 nM
33 | COC(=O)N[C@H](C(=O)N1CCC[C@H]1c1ncc(-c2ccc(-c3ccc4cc(-c5c[nH]c([C@@H]6CCCN6C(=O)[C@H](NC(=O)N6CC[C@H](O)C6)c6ccccc6)n5)ccc4c3)cc2)[nH]1)C(C)C [compound 15] | < 1 | –
34 | COC(=O)N[C@H](C(=O)N1CCC[C@H]1c1ncc(-c2ccc(-c3ccc4cc(-c5c[nH]c([C@@H]6CCCN6C(=O)[C@H](NC(=O)OC)c6ccccc6)n5)ccc4n3)cc2)[nH]1)C1CCOCC1 [compound 90] | < 1 | –
35 | CCC(CC)[C@H](NC(=O)OC)C(=O)N1CCC[C@H]1c1ncc(-c2ccc3cc(-c4ccc5nc([C@@H]6CCCN6C(=O)[C@@H](NC(=O)OC)C(CC)CC)[nH]c5c4)ncc3c2)[nH]1 [compound 518] | – | EC50 (Huh-7, HCV 1b replicon): < 1 nM
36 | COC(=O)N[C@H](C(=O)N1CCC[C@H]1c1ncc(-c2ccc(-c3cc4ccc(-c5c[nH]c([C@@H]6CCCN6C(=O)[C@H](NC(=O)OC)c6ccccc6)n5)cc4cn3)cc2)[nH]1)C1CCOCC1 [compound 101] | < 1 | –
37 | COC(=O)N[C@H](C(=O)N1CCC[C@H]1c1ncc(-c2ccc3nc(-c4ccc(-c5cnc([C@@H]6CCCN6C(=O)[C@H](NC(=O)OC)c6ccccc6)[nH]5)c(F)c4)ccc3c2)[nH]1)C1CCOCC1 [compound 473] | – | EC50 (Huh-7, HCV 1b replicon): < 1 nM
38 | COC(=O)N[C@@H](C)C(=O)N1CCC[C@H]1c1ncc(-c2ccc(-c3ccc4cc(-c5c[nH]c([C@@H]6CCCN6C(=O)[C@@H](NC(=O)OC)C(C)C)n5)ccc4n3)cc2)[nH]1 [compound 44] | < 1 | –
39 | CC[C@H](C)[C@H](NC(=O)OC)C(=O)N1CCC[C@H]1c1ncc(-c2ccc3cc(-c4ccc5nc([C@@H]6COCCN6C(=O)[C@@H](NC(=O)OC)[C@@H](C)CC)[nH]c5c4)ccc3c2)[nH]1 [compound 353] | – | EC50 [2]: < 1 nM
40 | COC(=O)N[C@H](C(=O)N1CCC[C@H]1c1ncc(-c2ccc3cc(-c4ccc5nc([C@@H]6COCCN6C(=O)[C@@H](NC(=O)OC)C(C)C)[nH]c5c4)ccc3c2)[nH]1)C(C)C [compound 222] | < 1 | –
41 | c1cc2nc(C34CCC(c5cnc([C@@H]6CCCN6)[nH]5)(CC3)CC4)ccc2cc1-c1c[nH]c([C@@H]2CCCN2)n1 [compound 267] | > 1000 | –
